Test results: patent US20200069592A1, “HSP90 INHIBITOR ORAL FORMULATIONS AND RELATED METHODS” (Samus Therapeutics, Inc., priority 2017, published 2020)
Marks after values point to notes of the source that are not given here.

Tests used:
[1] = Body weight change / dose tolerance in the MDA-MB-468 xenograft study
Source text: (§1) The animals used in this study were Nu/Nu (NU-Foxn1^nu) (athymic nude) physiologically normal female mice supplied by Charles River. At the time of inoculation, the age of the animals was 5-8 weeks. Sixty total animals were used and animals were not replaced during the course of this study. Mice were identified with a transponder. The animals were housed in individually ventilated microisolator cages and allowed to acclimate for at least 5-7 days. The animals were maintained under pathogen-free conditions and given Teklad Global Diet® 2920x irradiated pellets for food and autoclaved water ad libitum.
(§2) Compound ldihydrochloride (2HCl) was provided as a crystalline powder and stored at 2-8° C. protected from light. The administered form of Compound 1 2HCl was a clear solution. For intraperitoneal administration, Compound 1 2HCl was reconstituted in PBS. For oral administration, Compound 1 2HCl was reconstituted in 0.5% Methylcellulose (MC) in water. The salt: base ratio was 1.14:1 (i.e., to obtain 100 mg of Compound 1 free base, 114 mg of Compound 1 dihydrochloride salt was weighed out). Dose levels of Compound 1 were based on the free base, not the salt. Compound 1 2HCl in administered form was prepared fresh immediately prior to use.
(§3) Animals were randomized using random equilibration of tumor volume into one of six study groups, as shown in Table 22 (Groups 1-6), with 10 animals in each group.
(§4) Group 1 was administered vehicle control alone (without Compound 1 2HCl) intraperitoneally (IP) three times weekly (TIW) until the end of the study. PBS was used as the vehicle control and was administered at a volume of 10 mL/kg.
(§5) Groups 2-6 were administered Compound 1 2HCl at a volume of 10 mL/kg three times weekly (TIW) until the end of the study with the doses as described next.
(§6) Group 2 received 75 mg/kg Compound 1 2HCl via intraperitoneal administration.
(§7) Group 3 received 75 mg/kg Compound 1 2HCl via oral administration (PO). Group 4 received 100 mg/kg Compound 1 2HCl via oral administration. Group 5 received 125 mg/kg Compound 1 2HCl via oral administration. Group 6 received 150 mg/kg Compound 1 2HCl via oral administration. […]
(§8) Tumor volume and body weight were measured twice weekly with gross observations daily. […]
(§9) For data analysis, simple statistics (ANOVA) will be conducted on tumor volumes to verify significance of treatment groups relative to control. Growth curves will be constructed and percent tumor growth inhibition (TGI) will be calculated as a means to assess the effect of the single-agent therapy regimens. […]
(§10) The Materials and Methods used were the same as discussed above for Example 3, except for the lengths of treatment for Groups 1-4. […] Tumor growth and body weight were measured twice weekly with gross observations daily for Groups 1-5 until Day 117.

in vivo = settings: female, Nu/Nu (NU-Foxn1^nu) athymic nude, mouse, ip
Source text: as §1, §2, §3, §4, §5, §6, §7, §8, §9, §10

[2] = test system: MDA-MB-468 triple negative breast tumor xenograft; assay: MDA-MB-468 triple negative breast tumor xenograft model, tumor volume (IP vs PO); type: in vivo, Nu/Nu (athymic nude) female mice; settings: for Mean tumor volume as % of mean tumor volume in control mice receiving vehicle alone / Mean tumor volume as % of mean tumor volume in mice receiving 75 mg/kg orally or intraperitoneally: Day 89; for Mean tumor volume on Day 117 relative to the same mice at Day 1: treatment stopped Day 103
Protocol: Mice were identified with a transponder.
To form the xenografts, 1×10^7 MDA-MB-468 cells suspended in 0.1 ml of 50% Matrigel/50% Media (1:1) were injected into the mammary fat pad of each mouse. Treatment was initiated when the mean tumor size reached 100-150 mm^3 and the day of treatment initiation was designated as Day 1. Subcutaneous tumor size was calculated as tumor volume (mm^3)=(a×b^2/2), where ‘b’ is the smallest diameter and ‘a’ is the largest diameter.
Oral gavage was used for oral administration.

[3] = female, Nu/Nu (NU-Foxn1^nu) athymic nude, mouse, in vivo, po, 150 mg/kg, 14 days
Source text: as §1, §2, §3, §4, §5, §6, §7, §8, §9, §10

[4] = Tolerability (body weight, toxicity, maximum tolerated dose) in the Example 5 rat study; type: in vivo; settings: female, Sprague Dawley, rat, in vivo, iv
Protocol: Ninety-four total animals were observed thereafter. The parenteral administration is performed by tail vein injection.

[5] = Plasma pharmacokinetics after single oral dose in ORA-Plus or SyrSpend SF (Example 6), LC-MS/MS; type: in vivo, Sprague Dawley rats; settings: for % AUC0-last test vs reference: rats, ratio of group averages; for AUC(0-t) / Cmax / Tmax / AUC(0-inf) / half-life: female, Sprague Dawley, rat, plasma, po
[6] = G5: 2HCl, 24 mg/kg single oral dose, ORA-plus, rat plasma, n = 4
[7] = G6: 2HCl, 48 mg/kg single oral dose, ORA-plus, rat plasma
[8] = G12: 2HCl, 24 mg/kg single oral dose, SyrSpend, rat plasma, n = 1
[9] = G13: 2HCl, 48 mg/kg single oral dose, SyrSpend, n = 2
[10] = G14: 2HCl, 60 mg/kg single oral dose, SyrSpend, n = 3
[11] = 24 mg/kg, G5: 2HCl, 24 mg/kg single oral dose, ORA-plus, rat plasma
[12] = 24 mg/kg, G5: 2HCl, 24 mg/kg single oral dose, ORA-plus, rat plasma, n = 4
[13] = 24 mg/kg, G12: 2HCl, 24 mg/kg single oral dose, SyrSpend, rat plasma
[14] = 24 mg/kg, G12: 2HCl, 24 mg/kg single oral dose, SyrSpend, rat plasma, n = 1
[15] = 48 mg/kg, G6: 2HCl, 48 mg/kg single oral dose, ORA-plus, rat plasma
[16] = 48 mg/kg, G13: 2HCl, 48 mg/kg single oral dose, SyrSpend
[17] = 48 mg/kg, G13: 2HCl, 48 mg/kg single oral dose, SyrSpend, n = 2
[18] = 60 mg/kg, G14: 2HCl, 60 mg/kg single oral dose, SyrSpend
[19] = 60 mg/kg, G14: 2HCl, 60 mg/kg single oral dose, SyrSpend, n = 3

CC(C)NCCCn1c(Sc2cc3c(cc2I)OCO3)nc2c(N)ncnc21 [Compound 1 2HCl]
Body weight change ([1]; 100 mg/kg PO, during and after treatment (to Day 117)): minimal effects on body weight | Body weight change ([1]; Group 2: 75 mg/kg IP, Day 5 and Day 8): greater decrease in body weight | MTD at 103 days (in vivo): 75 mg/kg | Effect on tumor growth (tumor volume) ([2]; 75 mg/kg IP, TIW, Day 36): tumor inhibition was observed | Mean tumor volume as % of mean tumor volume in control mice receiving vehicle alone ([2]; 75 mg/kg IP, TIW): about 20% | Mean tumor volume on Day 117 relative to the same mice at Day 1 ([2]; 75 mg/kg IP): 1.7-1.9 times | Effect on tumor growth (tumor volume) ([2]; 75 mg/kg PO vs same dose IP, first 14 days of treatment): inhibited tumor growth slightly more than intraperitoneal administration | Effect on tumor growth (tumor volume) ([2]; 75 mg/kg PO, TIW, Day 36): tumor inhibition was observed | Mean tumor volume as % of mean tumor volume in control mice receiving vehicle alone ([2]; 75 mg/kg PO, TIW): about 20% | Mean tumor volume on Day 117 relative to the same mice at Day 1 ([2]; 75 mg/kg PO): 1.7-1.9 times | Effect on tumor growth (tumor volume) ([2]; 100 mg/kg PO, TIW, 89 days): tumor regressive | Effect on tumor growth (tumor volume) ([2]; 100 mg/kg PO, TIW, Day 36): Tumor inhibition was also observed | Mean tumor volume as % of mean tumor volume in mice receiving 75 mg/kg orally or intraperitoneally ([2]; 100 mg/kg PO, TIW): about 50% | Mean tumor volume as % of mean tumor volume in the same mice at day 1 ([2]; 100 mg/kg PO, after treatment stopped Day 103, study to Day 117): about 63% | Effect on tumor growth (tumor volume) ([2]; 125 mg/kg PO, TIW (dosing holiday Day 29), 36 day period): caused tumor regression | Mean tumor volume as % of mean tumor volume in mice receiving 75 mg/kg orally or intraperitoneally ([2]; 125 mg/kg PO, TIW with dosing holidays, dosing ended Day 78): about 50% | Effect on tumor growth (tumor volume) ([2]; 125 mg/kg PO, TIW with dosing holidays, 89 days): tumor regressive | Mean tumor volume as % of mean tumor volume in the same mice at day 1 ([2]; 125 mg/kg PO, after treatment stopped Day 78, study to Day 117): ~70% | Effect on tumor growth (tumor volume) ([2]; Group 2: 75 mg/kg IP in PBS, TIW, Study Days 1-8): did not inhibit tumor growth | Effect on tumor growth (tumor volume) ([2]; Group 3: 75 mg/kg PO in 0.5% MC, TIW, Day 8, compared with Group 2): tumor growth was reduced | Effect on tumor growth (tumor volume) ([2]; Group 4: 100 mg/kg PO, TIW, Days 1-8, compared to Group 1): Inhibition of tumor growth | Effect on tumor growth (tumor volume) ([2]; Group 5: 125 mg/kg PO, TIW, Days 1-8): greatest suppression of tumor growth | Effect on tumor growth (tumor volume) ([2]; Group 6: 150 mg/kg PO, TIW, Days 1-8): greatest suppression of tumor growth | Treatment toxicity [3]: stopped on Day 14 due to toxicity | MTD [4]: 24 mg/kg | AUC % Extrap [5, 6]: 5.00 ± 4.92 % | Cl_F [5, 6]: 6.14 ± 2.32 L/h/kg | Vz_F [5, 6]: 15.12 ± 3.53 L/kg | AUC % Extrap [5, 7]: 1.42 ± 0.79% | Cl_F [5, 7]: 6.63 ± 2.82 L/h/kg | Vz_F [5, 7]: 33.74 ± 16.37 L/kg | AUC % Extrap [5, 8]: 0.47^a % | Cl_F [5, 8]: 4.17^a L/hr/kg | Vz_F [5, 8]: 17.51^a L/kg | AUC % Extrap [5, 9]: 6.76 ± 5.82 % | Cl_F [5, 9]: 22.85 ± 5.76 L/h/kg | Vz_F [5, 9]: 139.42 ± 13.22 L/kg | AUC % Extrap [5, 10]: 0.69 ± 0.34 % | Vz_F [5, 10]: 27.15 ± 11.86 L/kg | % AUC0-last test vs reference ([5]; Group 5 (24 mg/kg 2HCl ORA-plus) vs Group 6 (48 mg/kg 2HCl ORA-plus)): 53.01% | % AUC0-last test vs reference ([5]; Group 5 (24 mg/kg 2HCl ORA-plus) vs Group 12 (24 mg/kg 2HCl SyrSpend)): 84.12% | % AUC0-last test vs reference ([5]; Group 6 (48 mg/kg 2HCl ORA-plus) vs Group 13 (48 mg/kg 2HCl SyrSpend)): 298.14% | % AUC0-last test vs reference ([5]; Group 6 (48 mg/kg 2HCl ORA-plus) vs Group 14 (60 mg/kg 2HCl SyrSpend)): 62.79% | % AUC0-last test vs reference ([5]; Group 12 (24 mg/kg 2HCl SyrSpend) vs Group 13 (48 mg/kg 2HCl SyrSpend)): 187.87% | % AUC0-last test vs reference ([5]; Group 12 (24 mg/kg 2HCl SyrSpend) vs Group 14 (60 mg/kg 2HCl SyrSpend)): 39.57% | % AUC0-last test vs reference ([5]; Group 13 (48 mg/kg 2HCl SyrSpend) vs Group 14 (60 mg/kg 2HCl SyrSpend)): 21.06% | AUC(0-t) [5, 11]: 4200 ± 1120 ng·h/mL | Cmax [5, 11]: 1070 ± 221 ng/mL | Tmax [5, 11]: 2.4 ± 0.89 h | AUC(0-inf) [5, 12]: 4250 ± 1230 ng·h/mL | half-life [5, 12]: 1.8 ± 0.47 h | AUC(0-t) [5, 13]: 5000 ± 1260 ng·h/mL | Cmax [5, 13]: 1030 ± 151 ng/mL | Tmax [5, 13]: 3.2 ± 1.1 h | AUC(0-inf) [5, 14]: 5750 ng·h/mL | half-life [5, 14]: 2.91 h | AUC(0-inf) [5, 15]: 8040 ± 2410 ng·h/mL | AUC(0-t) [5, 15]: 7930 ± 2380 ng·h/mL | Cmax [5, 15]: 1120 ± 429 ng/mL | Tmax [5, 15]: 2.8 ± 1.1 h | half-life [5, 15]: 3.5 ± 0.53 h | AUC(0-t) [5, 16]: 2660 ± 946 ng·h/mL | Cmax [5, 16]: 1990 ± 787 ng/mL | Tmax [5, 16]: 0.7 ± 0.27 h | AUC(0-inf) [5, 17]: 2170 ± 548 ng·h/mL | half-life [5, 17]: 4.42 ± 1.52 h | AUC(0-t) [5, 18]: 12600 ± 5100 ng·h/mL | Cmax [5, 18]: 1710 ± 314 ng/mL | Tmax [5, 18]: 2.4 ± 2.07 h | AUC(0-inf) [5, 19]: 11500 ± 4440 ng·h/mL | half-life [5, 19]: 3.2 ± 0.4 h | Time point up to which all animals had quantifiable plasma levels ([5]; single oral dose, ORA-Plus or SyrSpend, data not shown): ≥ 8 h
